Calls of active or inactive are those of the source. The rule behind the calls is not given here.
Legend:
[1] = target: T1, 5-hydroxytryptamine receptor 6 (Homo sapiens, UniProt P50406); assay: Displacement of [3H]-LSD from human 5-HT6R expressed in HEK293 cells after 1 hr by microbeta plate reader analysis; format: cell-based
[2] = target: T2, 5-hydroxytryptamine receptor 2A (Homo sapiens, UniProt P28223); assay: Displacement of [3H]-Ketanserin from recombinant human 5-HT2A receptor at 10^-6 M after 60 mins by radiometric scintillation counting analysis relative to control
[3] = target: T2, 5-hydroxytryptamine receptor 2A; assay: Displacement of [3H]-Ketanserin from recombinant human 5-HT2A receptor at 10^-7 M after 60 mins by radiometric scintillation counting analysis relative to control
[4] = target: 5-hydroxytryptamine receptor 2B (Homo sapiens) (UniProt P41595); assay: Displacement of [3H]-Mesulergine from recombinant human 5-HT2B receptor at 10^-6 M after 60 mins by radiometric scintillation analysis relative to control
[5] = Ratio of Cmax in brain to plasma in Wistar rat at 10 mg/kg, po; format: ADME, organism-based; settings: read-out: BPR
[6] = target: T2, 5-hydroxytryptamine receptor 2A; assay: Binding affinity to human 5-HT2AR expressed in HEK293 cells by competitive binding assay; format: cell-based
[7] = target: Cytochrome P450 2D6 (Homo sapiens, UniProt P10635); assay: Inhibition of human CYP2D6 preincubated for 5 mins followed by NADPH addition and measured after 45 mins by luminescence based microplate reader analysis; format: ADME
[8] = target: T3, 5-HT2C receptor (Homo sapiens, UniProt P28335); assay: Antagonist activity at 5-HT2CR (unknown origin) at 10^-6 M relative to control
T3 sequence (P28335 whole entry): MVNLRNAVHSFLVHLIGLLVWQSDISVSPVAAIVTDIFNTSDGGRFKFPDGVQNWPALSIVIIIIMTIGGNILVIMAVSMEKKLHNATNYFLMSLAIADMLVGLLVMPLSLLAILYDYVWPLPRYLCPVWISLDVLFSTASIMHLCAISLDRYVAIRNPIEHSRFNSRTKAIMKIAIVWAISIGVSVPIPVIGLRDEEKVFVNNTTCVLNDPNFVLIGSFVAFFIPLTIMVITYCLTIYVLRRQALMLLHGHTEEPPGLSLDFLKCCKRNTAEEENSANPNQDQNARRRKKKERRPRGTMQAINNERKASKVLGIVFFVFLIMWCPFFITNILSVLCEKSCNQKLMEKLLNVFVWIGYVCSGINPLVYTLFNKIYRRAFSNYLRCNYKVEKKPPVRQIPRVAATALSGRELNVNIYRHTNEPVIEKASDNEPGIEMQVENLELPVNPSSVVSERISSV

[9] = target: T4, Muscarinic acetylcholine receptor M1 (Homo sapiens) (UniProt P11229); assay: Displacement of [3H]pyrilamine from recombinant human M1 receptor at 10^-6 M after 60 mins by radiometric scintillation counting analysis relative to control
T4 sequence (whole entry): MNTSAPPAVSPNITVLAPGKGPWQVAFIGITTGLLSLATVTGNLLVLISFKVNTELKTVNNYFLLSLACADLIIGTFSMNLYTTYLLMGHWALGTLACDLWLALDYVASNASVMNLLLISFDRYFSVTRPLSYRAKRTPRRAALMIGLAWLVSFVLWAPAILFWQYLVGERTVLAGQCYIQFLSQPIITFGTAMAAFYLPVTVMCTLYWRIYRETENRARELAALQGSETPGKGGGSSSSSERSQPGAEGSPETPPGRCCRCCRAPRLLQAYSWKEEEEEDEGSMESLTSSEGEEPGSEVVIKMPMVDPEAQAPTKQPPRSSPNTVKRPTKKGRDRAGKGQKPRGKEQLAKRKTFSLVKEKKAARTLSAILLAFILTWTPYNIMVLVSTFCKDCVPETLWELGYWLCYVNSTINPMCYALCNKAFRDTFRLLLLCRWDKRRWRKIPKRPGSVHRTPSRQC

[10] = target: 5-hydroxytryptamine receptor 7 (Homo sapiens, UniProt P34969); assay: Displacement of [3H]-CT from human 5-HT7 receptor expressed in HEK293 cells after 1 hr by microbeta plate reader analysis; format: cell-based
[11] = target: Histamine H1 receptor (Homo sapiens) (UniProt P35367); assay: Displacement of [3H]pyrilamine from recombinant human H1 receptor at 10^-6 M after 60 mins by radiometric scintillation counting analysis relative to control
[12] = Mutagenicity in Salmonella typhimurium TA100 at 1 to 10 uM incubated for 90 mins followed by replating on medium without histidine and measured after 72 hrs by Ames test; format: toxicity; settings: salmonella enterica subsp. enterica serovar typhimurium
[13] = target: Cytochrome P450 3A4 (Homo sapiens, UniProt P08684); assay: Inhibition of human CYP3A4 preincubated for 5 mins followed by NADPH addition and measured after 30 mins by luminescence based microplate reader analysis; format: ADME
[14] = target: T5, P-gp (ABCB1) (Homo sapiens, UniProt P08183); assay: Substrate activity at Pgp (unknown origin) assessed as permeability from basolateral to apical side by cell based assay; format: ADME; settings: not told
[15] = Half life in rat liver microsomes up to 60 mins by HPLC-LC/MS analysis; settings: liver microsomes
[16] = target: T6, 5-hydroxytryptamine receptor 1A (Homo sapiens, UniProt P08908); assay: Displacement of [3H]-8-OH-DPAT from human 5-HT1A receptor expressed in HEK293 cells after 1 hr by microbeta plate reader analysis; format: cell-based
T6 sequence (P08908 whole entry): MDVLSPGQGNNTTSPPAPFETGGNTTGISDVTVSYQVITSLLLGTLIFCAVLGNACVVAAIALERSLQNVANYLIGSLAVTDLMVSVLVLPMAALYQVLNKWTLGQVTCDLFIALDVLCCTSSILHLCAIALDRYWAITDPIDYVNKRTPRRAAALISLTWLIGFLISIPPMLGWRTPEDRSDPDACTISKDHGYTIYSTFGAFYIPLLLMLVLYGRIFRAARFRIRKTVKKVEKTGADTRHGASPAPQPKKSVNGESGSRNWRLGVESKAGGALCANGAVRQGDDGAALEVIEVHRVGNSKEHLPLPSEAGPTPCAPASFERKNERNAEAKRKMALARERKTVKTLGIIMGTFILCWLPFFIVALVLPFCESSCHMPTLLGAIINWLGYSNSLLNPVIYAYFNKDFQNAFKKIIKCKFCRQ

[17] = target: T7, Alpha-1A adrenergic receptor (Homo sapiens) (UniProt P35348); assay: Displacement of [3H]prazosin from recombinant human alpha 1A adreno receptor at 10^-6 M after 60 mins by radiometric scintillation counting analysis relative to control
T7 sequence (whole entry): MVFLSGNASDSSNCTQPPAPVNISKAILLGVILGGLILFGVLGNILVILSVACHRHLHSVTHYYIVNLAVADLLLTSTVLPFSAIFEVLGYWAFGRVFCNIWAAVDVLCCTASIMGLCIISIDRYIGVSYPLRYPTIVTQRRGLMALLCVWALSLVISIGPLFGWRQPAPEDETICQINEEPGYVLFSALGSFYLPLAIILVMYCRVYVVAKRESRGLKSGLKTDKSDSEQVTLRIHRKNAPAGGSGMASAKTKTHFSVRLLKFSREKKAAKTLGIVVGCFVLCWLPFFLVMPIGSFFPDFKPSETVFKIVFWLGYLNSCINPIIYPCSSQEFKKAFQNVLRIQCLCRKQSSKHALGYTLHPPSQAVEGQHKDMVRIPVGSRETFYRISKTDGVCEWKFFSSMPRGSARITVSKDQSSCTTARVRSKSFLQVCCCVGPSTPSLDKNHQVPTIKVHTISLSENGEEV

[18] = system: Rattus norvegicus; assay: Reversal of phencyclidine-induced memory impairment in Sprague-Dawley rat at 3 to 10 mg/kg, po for 2 hrs followed by phencyclidine treatment 45 mins prior to testing by novel object recognition test; format: functional, organism-based
[19] = target: T1, 5-hydroxytryptamine receptor 6; assay: Antagonist activity at human 5-HT6 receptor expressed in HEK293 cells assessed as inhibition of 5-CT induced cAMP production incubated for 30 mins by TR-FRET assay; format: functional, cell-based
[20] = system: HepG2; assay: Cytotoxicity against human HepG2 cells after 24 hrs by ToxiLight bioassay; settings: HepG2, 24 h
[21] = system: HepG2; assay: Cytotoxicity against human HepG2 cells assessed as reduction in cell viability after 24 hrs by presto-blue assay; settings: HepG2, 24 h
[22] = target: T5, P-gp (ABCB1); assay: Substrate activity at Pgp (unknown origin) assessed as permeability from apical to basolateral side by cell based assay; format: ADME; settings: not told
[23] = in vitro; settings: rat, liver microsomes
[24] = target: hERG (KCNH2) (Homo sapiens, UniProt Q12809); assay: Inhibition of human ERG at 10^-6 M relative to control
hERG (KCNH2), sequence (Q12809 whole entry): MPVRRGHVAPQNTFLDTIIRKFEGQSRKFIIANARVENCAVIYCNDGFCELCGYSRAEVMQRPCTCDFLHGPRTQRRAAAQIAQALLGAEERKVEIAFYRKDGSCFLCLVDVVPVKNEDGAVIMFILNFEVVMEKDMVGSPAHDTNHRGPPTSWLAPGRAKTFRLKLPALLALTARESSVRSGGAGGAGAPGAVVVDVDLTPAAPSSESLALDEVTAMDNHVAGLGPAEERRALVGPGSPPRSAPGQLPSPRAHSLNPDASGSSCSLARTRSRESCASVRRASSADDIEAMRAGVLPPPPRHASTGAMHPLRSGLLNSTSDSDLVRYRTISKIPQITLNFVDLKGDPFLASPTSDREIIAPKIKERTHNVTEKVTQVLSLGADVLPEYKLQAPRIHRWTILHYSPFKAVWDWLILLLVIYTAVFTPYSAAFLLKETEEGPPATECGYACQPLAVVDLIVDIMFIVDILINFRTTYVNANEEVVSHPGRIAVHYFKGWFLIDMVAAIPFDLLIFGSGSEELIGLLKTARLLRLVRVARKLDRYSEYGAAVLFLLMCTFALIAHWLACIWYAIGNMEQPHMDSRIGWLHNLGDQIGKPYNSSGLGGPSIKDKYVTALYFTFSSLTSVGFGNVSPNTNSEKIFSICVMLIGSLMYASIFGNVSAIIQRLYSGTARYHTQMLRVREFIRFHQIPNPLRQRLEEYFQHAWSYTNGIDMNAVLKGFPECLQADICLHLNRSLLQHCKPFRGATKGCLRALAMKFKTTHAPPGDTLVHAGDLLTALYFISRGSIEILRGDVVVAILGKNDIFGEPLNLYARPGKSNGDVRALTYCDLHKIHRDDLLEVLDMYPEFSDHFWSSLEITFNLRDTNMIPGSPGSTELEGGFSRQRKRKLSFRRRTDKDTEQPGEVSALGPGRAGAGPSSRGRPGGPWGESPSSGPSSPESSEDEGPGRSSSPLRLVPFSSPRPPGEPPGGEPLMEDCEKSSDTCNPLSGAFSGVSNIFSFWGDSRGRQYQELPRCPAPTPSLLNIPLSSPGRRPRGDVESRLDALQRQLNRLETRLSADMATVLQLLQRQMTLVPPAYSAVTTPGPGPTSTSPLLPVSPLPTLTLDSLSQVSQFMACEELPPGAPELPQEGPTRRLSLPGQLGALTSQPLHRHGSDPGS

T2 sequence (P28223 whole entry): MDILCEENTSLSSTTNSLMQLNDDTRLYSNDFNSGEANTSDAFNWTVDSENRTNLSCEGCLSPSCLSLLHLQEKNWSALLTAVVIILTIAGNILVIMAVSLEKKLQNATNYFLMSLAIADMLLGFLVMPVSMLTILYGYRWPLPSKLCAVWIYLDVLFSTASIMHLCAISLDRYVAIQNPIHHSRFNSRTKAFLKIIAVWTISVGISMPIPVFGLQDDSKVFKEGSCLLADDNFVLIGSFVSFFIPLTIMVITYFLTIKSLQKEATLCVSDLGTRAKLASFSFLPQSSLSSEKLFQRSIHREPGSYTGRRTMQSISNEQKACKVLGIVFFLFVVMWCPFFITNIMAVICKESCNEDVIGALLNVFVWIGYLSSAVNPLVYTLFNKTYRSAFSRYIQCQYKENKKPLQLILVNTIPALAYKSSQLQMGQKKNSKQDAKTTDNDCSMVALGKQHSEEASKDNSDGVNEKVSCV
T1 sequence (P50406 whole entry): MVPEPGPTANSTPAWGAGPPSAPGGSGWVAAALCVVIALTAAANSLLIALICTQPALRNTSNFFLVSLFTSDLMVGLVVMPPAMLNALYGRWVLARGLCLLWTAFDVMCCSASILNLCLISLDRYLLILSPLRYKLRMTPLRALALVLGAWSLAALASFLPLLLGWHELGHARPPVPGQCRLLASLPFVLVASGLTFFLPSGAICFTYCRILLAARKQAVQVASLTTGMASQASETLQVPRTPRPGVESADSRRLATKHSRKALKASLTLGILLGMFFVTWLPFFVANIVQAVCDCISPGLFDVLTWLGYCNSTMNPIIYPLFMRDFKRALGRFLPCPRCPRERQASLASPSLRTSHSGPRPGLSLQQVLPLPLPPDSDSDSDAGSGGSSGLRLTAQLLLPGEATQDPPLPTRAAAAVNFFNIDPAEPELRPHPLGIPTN
T5 sequence (P08183 whole entry): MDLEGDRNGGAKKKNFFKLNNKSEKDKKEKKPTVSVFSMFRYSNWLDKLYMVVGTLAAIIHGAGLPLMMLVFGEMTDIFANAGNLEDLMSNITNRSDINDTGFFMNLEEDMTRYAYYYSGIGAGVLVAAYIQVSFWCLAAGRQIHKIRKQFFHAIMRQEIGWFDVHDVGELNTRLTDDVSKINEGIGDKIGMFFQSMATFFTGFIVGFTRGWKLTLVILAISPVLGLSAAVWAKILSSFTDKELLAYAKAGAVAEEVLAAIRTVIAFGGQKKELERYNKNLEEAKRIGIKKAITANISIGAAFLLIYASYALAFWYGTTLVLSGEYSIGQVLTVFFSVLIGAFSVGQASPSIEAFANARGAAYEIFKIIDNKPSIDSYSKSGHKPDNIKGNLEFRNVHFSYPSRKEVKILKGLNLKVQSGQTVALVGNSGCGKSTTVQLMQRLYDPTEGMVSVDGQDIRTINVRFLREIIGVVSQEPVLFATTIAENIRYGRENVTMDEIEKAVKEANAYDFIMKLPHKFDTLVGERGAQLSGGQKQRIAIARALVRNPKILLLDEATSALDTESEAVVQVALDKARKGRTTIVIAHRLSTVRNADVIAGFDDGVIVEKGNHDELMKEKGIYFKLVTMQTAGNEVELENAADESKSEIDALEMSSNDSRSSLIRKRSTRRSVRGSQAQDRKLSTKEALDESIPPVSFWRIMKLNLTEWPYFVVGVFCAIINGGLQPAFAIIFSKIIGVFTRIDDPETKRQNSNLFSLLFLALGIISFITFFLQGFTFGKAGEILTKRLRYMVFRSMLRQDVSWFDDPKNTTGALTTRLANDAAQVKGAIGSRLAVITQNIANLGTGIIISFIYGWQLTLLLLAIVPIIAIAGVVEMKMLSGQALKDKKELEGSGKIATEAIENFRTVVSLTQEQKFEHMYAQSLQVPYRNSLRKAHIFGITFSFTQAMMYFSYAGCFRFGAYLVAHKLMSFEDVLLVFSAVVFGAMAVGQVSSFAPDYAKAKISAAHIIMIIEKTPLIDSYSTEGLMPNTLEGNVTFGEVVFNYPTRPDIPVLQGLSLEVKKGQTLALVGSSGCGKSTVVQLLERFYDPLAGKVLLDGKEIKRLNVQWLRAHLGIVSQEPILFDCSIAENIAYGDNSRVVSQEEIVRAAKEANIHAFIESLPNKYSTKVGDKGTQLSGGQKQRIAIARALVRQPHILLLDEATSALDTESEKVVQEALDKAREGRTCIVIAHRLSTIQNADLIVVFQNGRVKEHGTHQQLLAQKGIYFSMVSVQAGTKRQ
Cytochrome P450 2D6, sequence (P10635 whole entry): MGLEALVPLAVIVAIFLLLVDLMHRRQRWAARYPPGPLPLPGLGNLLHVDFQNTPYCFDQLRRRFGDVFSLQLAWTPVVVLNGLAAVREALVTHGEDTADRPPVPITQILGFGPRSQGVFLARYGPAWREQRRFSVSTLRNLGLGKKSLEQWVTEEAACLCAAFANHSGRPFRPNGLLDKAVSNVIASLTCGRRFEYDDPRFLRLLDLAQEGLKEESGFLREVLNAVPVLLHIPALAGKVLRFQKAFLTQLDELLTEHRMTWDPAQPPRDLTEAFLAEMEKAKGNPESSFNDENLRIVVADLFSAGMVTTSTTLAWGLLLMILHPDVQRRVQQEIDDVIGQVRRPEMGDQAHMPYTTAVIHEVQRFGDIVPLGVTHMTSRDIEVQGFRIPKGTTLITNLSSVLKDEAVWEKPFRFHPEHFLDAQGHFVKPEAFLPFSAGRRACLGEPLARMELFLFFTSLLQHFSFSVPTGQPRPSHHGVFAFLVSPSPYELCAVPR
5-hydroxytryptamine receptor 7, sequence (P34969 whole entry): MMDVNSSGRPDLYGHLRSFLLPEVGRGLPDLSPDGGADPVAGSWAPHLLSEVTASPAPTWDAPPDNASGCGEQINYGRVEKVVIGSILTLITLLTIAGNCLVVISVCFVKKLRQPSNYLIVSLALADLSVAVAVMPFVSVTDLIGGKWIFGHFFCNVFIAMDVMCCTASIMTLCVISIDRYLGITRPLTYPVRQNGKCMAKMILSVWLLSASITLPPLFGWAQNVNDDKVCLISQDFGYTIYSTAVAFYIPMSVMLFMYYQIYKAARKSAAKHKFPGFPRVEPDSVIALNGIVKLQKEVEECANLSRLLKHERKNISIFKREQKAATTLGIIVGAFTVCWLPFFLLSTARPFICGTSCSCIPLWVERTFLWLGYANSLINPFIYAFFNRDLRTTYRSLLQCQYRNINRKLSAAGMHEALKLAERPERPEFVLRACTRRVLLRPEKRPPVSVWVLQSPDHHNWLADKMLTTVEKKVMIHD
5-hydroxytryptamine receptor 2B (Homo sapiens), sequence (P41595 whole entry): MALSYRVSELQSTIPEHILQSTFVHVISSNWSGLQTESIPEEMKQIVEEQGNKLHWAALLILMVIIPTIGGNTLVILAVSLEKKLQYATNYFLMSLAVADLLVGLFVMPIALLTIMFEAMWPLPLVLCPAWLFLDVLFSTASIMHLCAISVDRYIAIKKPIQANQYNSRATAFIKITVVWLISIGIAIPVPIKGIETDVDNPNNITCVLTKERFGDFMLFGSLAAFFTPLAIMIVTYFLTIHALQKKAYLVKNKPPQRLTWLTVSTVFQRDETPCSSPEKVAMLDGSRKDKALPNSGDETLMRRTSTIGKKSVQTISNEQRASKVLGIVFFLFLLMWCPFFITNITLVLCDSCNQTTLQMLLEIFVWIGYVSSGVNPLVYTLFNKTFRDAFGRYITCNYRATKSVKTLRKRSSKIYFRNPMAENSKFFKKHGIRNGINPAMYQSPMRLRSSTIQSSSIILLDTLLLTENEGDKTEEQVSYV

Ki [1]: 0.025 µM
inhibition [2]: 8.9%
inhibition [3]: 19.1%
inhibition [4]: -1.3%
Kp [5]: 0.7
Ki [6]: 0.032 µM
IC50 [7]: 8.4 µM
inhibition at 1 µM [8]: 59.9%
inhibition [9]: 4%
Ki [10]: 13.8 µM
inhibition [11]: 3.2%
IC50 [13]: 7.8 µM
Papp B→A [14]: 3.43 ×10⁻⁶ cm/s
half-life at 1 h [15]: 14 min
Ki [16]: 6.2 µM
inhibition [17]: 35.5%
Kb [19]: 0.027 µM
Papp A→B [22]: 8.87 ×10⁻⁶ cm/s
microsomal CLint at 1 h [23]: 103 µL/min/mg
Structure (SMILES): Oc1ccc(-c2ccc(CNCCc3c[nH]c4ncc(F)cc34)o2)cc1
Activity [12]: Non-Toxic
Activity [18]: Active
IC50 [20]: 6.2 µM
IC50 [21]: 5.14 µM
inhibition at 1 µM [24]: 42.2%
